Experimental data from patent publication US20230346901A1, “METHODS AND VACCINE COMPOSITIONS TO TREAT CANCERS” (priority 2019, published 2023).
Ends that are not written are not given here.

Assays:
normal spleen cells = experiment: Electron microscopy ultrastructural analysis, normal spleen cells; type: cell-based, mouse; conditions: normal spleen cells exposed to RT53 (data not shown)
Experimental: Samples were fixed in 3% glutaraldehyde in phosphate buffer, pH 7.4 for 1 hour, washed, post-fixed with 1% osmium tetroxide in 0.1 M phosphate buffer and then gradually dehydrated in 70, 90 and 100% ethanol. After 10 min in a 1:2 mixture of epoxy propane and epoxy resin and 10 min in epon, samples were embedded in epoxy resin and polymerized at 60° C. for 24 h. After polymerisation, ultrathin sections of 90 nm were cut with an ultra-microtome (Reichert ultracut S), stained with uranyl acetate and Reynold's lead and observed with a transmission electron microscope (JEOL 1011). Acquisition was performed with a Gatan Orius 1000 CCD camera.
To test the antileukemic properties of RT53, we first exposed human all-trans retinoic acid (ATRA)-sensitive (NB4) and ATRA-resistant (UF-1) acute promyelocytic leukemia (APL) cells as well as mouse APL spleen blast cells derived from hMRP8-PML-RARA transgenic mice9 to increasing concentrations of RT53.

[1] = Organ toxicity in peptide-treated APL mice; type: in vivo, FVB/N mice; conditions: either treatment schedule (data not shown)
Experimental: APL blasts (provided by Drs. M. Bishop and S. Kogan, UCSF, USA) origin from the spleen of mice bearing the human PML-RARA cDNA construct driven by a myeloid linage specific promoter (hMRP8) in the FVB/N inbred strain of mice. For amplification, cells (1×105 or 1×106) were suspended in PBS and transplanted by intravenous (i.v) tail injection (200 uL) into female syngeneic recipient mice (5-6 weeks old). Establishment of leukemia was assessed by a decrease in blood platelet counts approx. 3 weeks after graft. Spleen cells from a primary recipient were collected, washed, re-suspended in PBS and injected (10^4 cells/mouse; 200 uL) into the tail veins of male FVB/N mice (7-8 weeks old) for experiments. For direct treatment experiments, mice were treated daily or every other day (i.p) with normal saline, RT53 or RT39 at 2.4 mg/kg in normal saline starting from day 10 or day 20 for a total of 7 injections.
To explore the in vivo therapeutic potential of RT53 as a treatment of acute leukemia, we used a well-characterized preclinical APL model bearing the human PML-RARA oncogene which mimics human APL, both in its characteristics and its response to conventional therapeutic drugs such as ATRA and arsenic trioxide^9, 10. In this model, 100% of the syngeneic mice (FVB/N) transplanted with 104 primary recipients' spleen blasts developed an APL and succumbed within 30 days (FIG. 1C).

[2] = system: spleen cells from healthy mice; type: cell-based, mouse; conditions: up to the highest concentration tested, 20 h
Experimental: FIG. 1: RT53 treatment increases APL mice survival. (A) The indicated cells were left untreated or exposed to increasing concentrations of RT53 for 20 h. Cell death induced by peptide treatment was measured by lactate dehydrogenase (LDH) release. Data are means±s.e.m. (n=3). (B) APL spleen cells were exposed to 5 μM of RT53 in the presence or absence of 50 μM zVAD-fmk or 50 μM Necrostatin-1 (Nec-1) for 3 h. Necrotic cell death was monitored by lactate dehydrogenase (LDH) release from cells into the culture medium. The obtained values were normalized to those of the maximum LDH released (completely lysed) control. Data are means±s.e.m. (n=3). (C) 104 APL blasts were inoculated intravenously (i.v.) into FVB/N mice at day zero. […] Survival curves were analyzed with the Mantel-Cox test. […] Survival curves were analyzed with the Mantel-Cox test.
Release of lactate dehydrogenase (LDH) and ATP in the culture medium were assessed with the CytoTox 96 Non-Radioactive Cytotoxicity Assay and Enliten ATP Assay, respectively (Promega, Madison, WI, USA). HMGB1 release in the culture medium was assessed with the HMGB1 ELISA kit (IBL International, Hamburg, Germany). […]

U2OS cells = experiment: Immunogenic cell death markers (HMGB1, ATP release) in U2OS cells; type: cell-based
Experimental: ((A) U2OS cells were left untreated or exposed to increasing concentrations of RT39 for 3 h. Extracellular HMGB1 was then measured in the culture supernatant by an ELISA assay. Data are means±s.e.m. (n=3). (B) U2OS cells were left untreated or exposed to increasing concentrations of RT39 for 3 h. Extracellular ATP was then measured in the culture supernatant using an ATP-bioluminescence assay. Data are means±s.e.m. (n=3).
Release of lactate dehydrogenase (LDH) and ATP in the culture medium were assessed with the CytoTox 96 Non-Radioactive Cytotoxicity Assay and Enliten ATP Assay, respectively (Promega, Madison, WI, USA). HMGB1 release in the culture medium was assessed with the HMGB1 ELISA kit (IBL International, Hamburg, Germany).

[3] = U2OS cells, increasing concentrations of RT39, 3 h

Sequence	cellular integrity by ultrastructural analysis (normal spleen cells)	organ toxicity (macroscopic or microscopic) [1]	cell death by LDH release in normal cells [2]	extracellular ATP release (ATP-bioluminescence) (U2OS cells; [3])	extracellular HMGB1 release (ELISA) (U2OS cells; [3])	calreticulin exposure (U2OS cells; stated in figure title only, cells not given)
RQIKIWFQNRRMKWKKAKLNAEKLKDFKIRLQYFARGLQVYIRQLRLALQGKT [RT53]	No changes in cellular integrity or ruptured cells could be detected	No organ toxicity	no cell death was detected	–	–	–
RQIKIWFQNRRMKWKKLQYFARGLQVYIRQLRLALQGKT (Synthetic Fusion protein RT39) [fusion of penetratin with AAC-11 leucine-zipper derived peptide (377-399)]	–	–	–	triggers calreticulin exposure as well as the release of HMGB1 and ATP	triggers calreticulin exposure as well as the release of HMGB1 and ATP	triggers calreticulin exposure
